Data reported in patent US8268846B2, “Amino heterocyclic linked pyrimidine derivatives” (Abbott Laboratories, priority 2008, dated 2012).

Tests used:
[1] = biological target: T1, histamine H4 receptor (Homo sapiens, UniProt Q9H3N8); test: In vitro histamine H4 potency in FLIPR (Ca2+ flux, HEK-293 cells coexpressing Gαqi5); format: cell-based; details: for Potency: Kb values for antagonists and inverse agonists, block of histamine-induced fluorescence
T1 construct: expressed in transfected cells
T1 sequence (Q9H3N8 whole entry, species assumed): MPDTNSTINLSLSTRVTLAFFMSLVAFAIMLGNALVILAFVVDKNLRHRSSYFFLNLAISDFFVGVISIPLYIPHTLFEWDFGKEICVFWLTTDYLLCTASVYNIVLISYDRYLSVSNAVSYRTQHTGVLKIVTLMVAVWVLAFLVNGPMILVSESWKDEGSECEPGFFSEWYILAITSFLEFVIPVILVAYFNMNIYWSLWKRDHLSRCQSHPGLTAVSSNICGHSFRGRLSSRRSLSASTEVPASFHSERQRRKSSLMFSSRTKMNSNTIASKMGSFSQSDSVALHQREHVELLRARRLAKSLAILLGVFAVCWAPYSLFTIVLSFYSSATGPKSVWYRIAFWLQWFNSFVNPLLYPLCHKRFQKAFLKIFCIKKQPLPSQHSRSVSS
Source text: There are many methods available to show the effectiveness of compounds as histamine H4 receptor ligands. Histamine H4 receptors from mammalian species have been cloned. Methods to clone, express, and assess the potency and functional activity of such cloned genes are well known to those skilled in the art of molecular biology. Examples of methods of cloning and expressing histamine H4 receptors, and of assessing the potency and functional activity are described in Nguyen, et al. Molecular Pharmacology (2001) vol. 59 pp. 427-433; Zhu, et al. Molecular Pharmacology (2001) vol. 59 pp. 434-441; Coge, et al., Biochemical and Biophysical Research Communications (2001) vol. 284, pp. 301-309; Liu, et al. Molecular Pharmacology (2001) vol. 59 pp. 420-426; Liu, et al. Journal of Pharmacology and Experimental Therapeutics (2001) v. 299, pp. 121-130; and Thurmond, et al. Journal of Pharmacology and Experimental Therapeutics (2004) v. 309, pp. 404-413. In the present case, to determine the potency and effectiveness of representative compounds of this invention as histamine-H4 receptor ligands (H4 receptor ligands), the following tests were conducted according to previously described methods (see Esbenshade, et al., Biochemical Pharmacology (2004), vol. 68, pp. 933-945, and in Krueger, et al., Journal of Pharmacology and Experimental Therapeutics (2005) v. 314, pp. 271-281): histamine H4 receptors were cloned and stably expressed in HEK-293 (human embryonic kidney) cells coexpressing a Gαqi5. Before testing, cells are loaded with a Ca^+2 sensitive fluorescent dye, in this case Fluo-4 (Invitrogen, Carlsbad, Calif.). In the case of partial agonist or agonist ligands, addition of compound to the cells leads to the increase in intracellular Ca^+2 which is detected by FLIPR (Fluorescence Imaging Plate Reader; Molecular Devices, Sunnyvale, Calif.) technology. In a similar manner, compounds that are antagonists or inverse agonists, block the increase in fluorescence induced by the full histamine H4 agonist histamine, and partial agonists reduce the amount of fluorescence induced by the full histamine H4 agonist histamine. The fluorescence intensities measured before addition of the test compound are subtracted from the fluorescence intensities at later time points. Peak response values determined at each concentration of ligand are expressed as a percentage of the response obtained with the full agonist histamine. Concentration versus response data are analyzed to obtain compound potency as Kb values for antagonists and inverse agonists and as EC50 values for partial agonists.

[2] = biological target: T1, histamine H4 receptor; test: [3H]-histamine competition binding assay, membranes of HEK-293 cells transfected with histamine H4 receptor; details: displacing 3H-histamine; Ki by Cheng-Prusoff equation; read-out: Potency
Experimental: The potency of compounds of the invention in displacing ^3H-histamine in competition binding assays is assessed by methods described in Esbenshade, et al., Biochemical Pharmacology (2004), vol. 68, pp. 933-945. In this assay, membranes were prepared from HEK-293 cells transiently transfected with the pCINeo expression vector harboring the histamine H4 receptor by homogenization of the cells on ice in TE buffer (50 mM Tris-HCl buffer, pH 7.4, containing 5 mM EDTA), 1 mM benzamidine, 2 μg/mL aprotinin, 1 μg/mL leupeptin, and 1 μg/mL pepstatin. The homogenate was centrifuged at 40,000 g for 20 minutes at 4° C. This step was repeated, and the resulting pellet was resuspended in TE buffer. Aliquots were frozen at −70° C. until needed. On the day of assay, membranes were thawed and diluted with TE buffer. Competition radioligand binding assays were performed with increasing concentrations of test compound in the presence of [^3H]-histamine incubated at 25° C. for 1 hour in a total volume of 0.5 mL of 50 mM Tris, 5 mM EDTA, pH 7.4. All binding reactions were terminated by filtration under vacuum onto polyethylenimine (0.3%) presoaked Unifilters (PerkinElmer Life Sciences) or Whatman GF/B filters (Whatman, Clifton, N.J.) followed by three brief washes with 4 mL of ice-cold TE buffer. Bound radiolabel was determined by liquid scintillation counting. For all of the radioligand competition binding assays, IC50 values and Hill slopes were determined by Hill transformation of the data and Ki values were determined by the Cheng-Prusoff equation. The following table of representative histamine H4 receptor ligands is provided, along with potency values: […]

Compound | Potency [1] | Ki [2] | EC50 ([1]; EC50 values for partial agonists)
Nc1nccc(NCCCNc2nc(N)nc3c2CCCc2ccccc2-3)n1 [Example 3, N^4-{3-[(2-aminopyrimidin-4-yl)amino]propyl}-6,7-dihydro-5H-benzo[6,7]cyclohepta[1,2-d]pyrimidine-2,4-diamine] | 309 nM | – | –
COc1ccc(Cl)cc1-c1cc(NCCNc2ccnc(N)n2)nc(N)n1 [Example 8, N^4-{2-[(2-aminopyrimidin-4-yl)amino]ethyl}-6-(5-chloro-2-methoxyphenyl)pyrimidine-2,4-diamine] | 589 nM | – | –
Nc1nccc(NCCNc2cc(-c3cc(Cl)cc(Cl)c3)nc(N)n2)n1 [Example 7, N^4-{2-[(2-aminopyrimidin-4-yl)amino]ethyl}-6-(3,5-dichlorophenyl)pyrimidine-2,4-diamine] | 69 nM | – | –
Nc1nccc(NCCNc2cc(/C=C/c3ccccc3)nc(N)n2)n1 [Example 9, N^4-{2-[(2-aminopyrimidin-4-yl)amino]ethyl}-6-[(E)-2-phenylvinyl]pyrimidine-2,4-diamine] | 85 nM | 20 nM | –
Nc1nccc(NCCNc2ncnc3c2oc2ccccc23)n1 [Example 12, N^4-[2-([1]benzofuro[3,2-d]pyrimidin-4-ylamino)ethyl]pyrimidine-2,4-diamine] | 2089 nM | – | –
Nc1nccc(NCCNc2cc(-c3ccccc3)nc(N)n2)n1 [Example 5, N^4-{2-[(2-aminopyrimidin-4-yl)amino]ethyl}-6-phenylpyrimidine-2,4-diamine] | 8.7 nM | – | –
CN(CCNc1ccnc(N)n1)c1nc(N)nc2c1CCCc1ccccc1-2 [Example 2, N^4-{2-[(2-aminopyrimidin-4-yl)amino]ethyl}-N^4-methyl-6,7-dihydro-5H-benzo[6,7]cyclohepta[1,2-d]pyrimidine-2,4-diamine] | 25 nM | 3.5 nM | –
Nc1nccc(NCCNc2nc(N)nc3c2CCCC32CCCC2)n1 [Example 10, N^4′-{2-[(2-aminopyrimidin-4-yl)amino]ethyl}-6′,7′-dihydro-5′H-spiro[cyclopentane-1,8′-quinazoline]-2′,4′-diamine] | 32 nM | 7.4 nM | –
Nc1nccc(NCCNc2cc(-c3cccc(Cl)c3)nc(N)n2)n1 [Example 6, N^4-{2-[(2-aminopyrimidin-4-yl)amino]ethyl}-6-(3-chlorophenyl)pyrimidine-2,4-diamine] | 2.5 nM | 6.6 nM | –
Nc1ccnc(NCCNc2nc(N)nc3c2CCCc2ccccc2-3)n1 [Example 4, N^4-{2-[(4-aminopyrimidin-2-yl)amino]ethyl}-6,7-dihydro-5H-benzo[6,7]cyclohepta[1,2-d]pyrimidine-2,4-diamine] | 1349 nM | – | –
Nc1nccc(NCCNc2nc(N)nc3c2CCCC(c2ccccc2)C3)n1 (stereo not shown) [Example 11, N^4-{2-[(2-aminopyrimidin-4-yl)amino]ethyl}-8-phenyl-6,7,8,9-tetrahydro-5H-cyclohepta[d]pyrimidine-2,4-diamine] | – | – | 2340 nM
Nc1nccc(NCCNc2nc(N)nc3c2CCCc2ccccc2-3)n1 [Example 1, N^4-{2-[(2-aminopyrimidin-4-yl)amino]ethyl}-6,7-dihydro-5H-benzo[6,7]cyclohepta[1,2-d]pyrimidine-2,4-diamine] | 204 nM | – | –
